Test results published in BigSolDB 2.1.

CCCCCCCCC(=O)NCc1ccc(O)c(OC)c1
solubility (mole fraction) (in DMSO, 293.2 K): 0.257
solubility (mole fraction) (in DMSO, 298.2 K): 0.315
solubility (mole fraction) (in DMSO, 303.2 K): 0.403
solubility (mole fraction) (in DMSO, 308.2 K): 0.495
solubility (mole fraction) (in DMSO, 313.2 K): 0.595
solubility (mole fraction) (in DMSO, 318.2 K): 0.671
solubility (mole fraction) (in DMSO, 323.2 K): 0.763
solubility (mole fraction) (in MTBE, 293.2 K): 0.019
solubility (mole fraction) (in MTBE, 298.2 K): 0.0472
solubility (mole fraction) (in MTBE, 303.2 K): 0.114
solubility (mole fraction) (in MTBE, 308.2 K): 0.27
solubility (mole fraction) (in MTBE, 313.2 K): 0.427
solubility (mole fraction) (in MTBE, 318.2 K): 0.569
solubility (mole fraction) (in MTBE, 323.2 K): 0.729
solubility (mole fraction) (in acetone, 293.2 K): 0.161
solubility (mole fraction) (in acetone, 298.2 K): 0.229
solubility (mole fraction) (in acetone, 303.2 K): 0.299
solubility (mole fraction) (in acetone, 308.2 K): 0.39
solubility (mole fraction) (in acetone, 313.2 K): 0.499
solubility (mole fraction) (in acetone, 318.2 K): 0.6
solubility (mole fraction) (in acetone, 323.2 K): 0.714
solubility (mole fraction) (in acetonitrile, 293.2 K): 0.0118
solubility (mole fraction) (in acetonitrile, 298.2 K): 0.0357
solubility (mole fraction) (in acetonitrile, 303.2 K): 0.0943
solubility (mole fraction) (in acetonitrile, 308.2 K): 0.232
solubility (mole fraction) (in acetonitrile, 313.2 K): 0.38
solubility (mole fraction) (in acetonitrile, 318.2 K): 0.553
solubility (mole fraction) (in acetonitrile, 323.2 K): 0.714
solubility (mole fraction) (in ethyl acetate, 293.2 K): 0.0625
solubility (mole fraction) (in ethyl acetate, 298.2 K): 0.117
solubility (mole fraction) (in ethyl acetate, 303.2 K): 0.199
solubility (mole fraction) (in ethyl acetate, 308.2 K): 0.309
solubility (mole fraction) (in ethyl acetate, 313.2 K): 0.421
solubility (mole fraction) (in ethyl acetate, 318.2 K): 0.566
solubility (mole fraction) (in ethyl acetate, 323.2 K): 0.712
solubility (mole fraction) (in methanol, 293.2 K): 0.219
solubility (mole fraction) (in methanol, 298.2 K): 0.28
solubility (mole fraction) (in methanol, 303.2 K): 0.349
solubility (mole fraction) (in methanol, 308.2 K): 0.428
solubility (mole fraction) (in methanol, 313.2 K): 0.489
solubility (mole fraction) (in methanol, 318.2 K): 0.583
solubility (mole fraction) (in methanol, 323.2 K): 0.736
solubility (mole fraction) (in n-hexane, 293.2 K): 4.06e-05
solubility (mole fraction) (in n-hexane, 298.2 K): 7e-05
solubility (mole fraction) (in n-hexane, 303.2 K): 0.000119
solubility (mole fraction) (in n-hexane, 308.2 K): 0.000189
solubility (mole fraction) (in n-hexane, 313.2 K): 0.000296
solubility (mole fraction) (in n-hexane, 318.2 K): 0.000457
solubility (mole fraction) (in n-hexane, 323.2 K): 0.000595
solubility (mole fraction) (in water, 293.2 K): 1.64e-05
solubility (mole fraction) (in water, 298.2 K): 1.93e-05
solubility (mole fraction) (in water, 303.2 K): 2.32e-05
solubility (mole fraction) (in water, 308.2 K): 2.71e-05
solubility (mole fraction) (in water, 313.2 K): 3.24e-05
solubility (mole fraction) (in water, 318.2 K): 3.7e-05
solubility (mole fraction) (in water, 323.2 K): 4.27e-05
